Assay results as given in patent US20110207745A1 (priority 2009, published 2011).
“And” between values parts separate entries of the source, which are not always exact repeats. Equal values may be shown once. Where a name gives a salt, the structure may show the parent alone. Read-outs that look alike come from different tables or passages of the source.

Tests used:
[1] = for % Purity after 60° C./80% RH, 2 wks / % Purity after 80° C., 2 wks: 2 weeks; for % Purity after 60° C./80% RH, 2 wks / % Purity after 60° C./80% RH, 4 wks / % Purity after 80° C., 2 wks / % Purity after 80° C., 4 wks / Initial Purity / % Purity after 40° C./75% RH, 2 wks / % Purity after 40° C./75% RH, 4 wks: HPLC area %; for % Purity after 60° C./80% RH, 4 wks / % Purity after 80° C., 4 wks: 4 weeks; for Initial Purity: before storage
Experimental: Stress Experiments. Solids are stressed under different temperature or relative humidity (RH) environments for a measured time period. Specific RH values are achieved by placing the sample inside sealed chambers containing saturated salt solutions, as known in the art. The salt solutions are selected and prepared following an ASTM standard procedure. Samples are analyzed by XRPD immediately after removal from the stress environment.
Analyses are carried out on an Agilent® model 1100 high performance liquid chromatograph using gradient elution on a reversed phase column utilizing ultraviolet (UV) detection. Approximately 25 mg of the sample is weighed accurately and dissolved in methanol/water/trifluoroacetic acid (35:65:0.05) to a volume of 50 mL. The sample solution is analysed using the conditions specified below:
The content of the drug and related substances are quantified by area (%).
Chemical Stability. The chemical stability of Form I of the mono-HCl salt of Compound A1 was assessed by stressing the material at various temperature/relative humidity/light conditions, then analyzing by HPLC.
Chemical Stability Data. The chemical stability of a sample of Form I of the sesquifumarate salt of Compound A1 was assessed by stressing the material at various temperature/relative humidity/light conditions, then analyzing by HPLC.

[2] = Intrinsic dissolution rate in simulated biological media; type: physicochemical
Experimental: Intrinsic dissolution rate is determined at 37° C. using a Distek Dissolution System model 5100A with a sample size of approximately 200 mg (0.5 cm^2 disc) and 500 mL dissolution medium. The paddle speed is set to 500 rpm and the paddle height to approximately 2.54 cm above the disc surface. The concentration of sample in solution is determined by HPLC.

[3] = Solubility in simulated biological media; type: physicochemical; conditions: FaSSIF (fasted-state simulated intestinal fluid), initial pH 6.51, mean ± SD, n = 2
Excerpt: Solubility and Dissolution Rate Data.
Solubility and Dissolution Rate Data. […]

rat = assay: Punished responding procedure (modified Geller-Seifter conflict test); conditions: 3.5 μmol/kg by mouth
Excerpt: Method. In the conflict test, hungry animals were trained to lever-press for food delivery in a standard operant chamber under 2 conditions. In the first condition, referred to as the unsuppressed component, food was delivered on average after 17 lever-presses were made (also called a VR17 schedule of reinforcement). In the second condition, referred to as the suppressed component and signaled by flashing lights inside the operant chamber, food was also delivered following an average of 17 lever-presses, but electric shock was additionally delivered to the floor of the cage under a separate VR17 schedule. Daily sessions consisted of 5 alternating presentations of each component type: suppressed (3 minutes in duration) and unsuppressed (2 minutes in duration). The number of lever presses emitted in the suppressed component was obviously low relative to the unsuppressed component.
Drug Administration and Preparation. […] Monday and Wednesday were washout/baseline days.
Apparatus. Standard 2-lever operant chambers were used (Med Associates). The chambers were fitted with 2 retractable response levers and a stimulus lamp over each of the 2 levers. A pellet dispenser delivered 45 mg food pellets, (Bio Serv) to a cup located inside of the chamber below and between the 2 response levers. A lamp at the top and back of the chamber served as houselights. The grid floors of the operant chambers were interfaced to shock generators and scramblers (Med Associates). All events in the chambers were controlled and monitored by a microprocessor.
Procedures. There were 2 components in the procedure: 1) an unsuppressed responding component (unpunished) with 2 minutes in duration; and 2) a suppressed responding component (punished) with 3 minutes in duration.
In the unpunished component, the houselights and both stimulus lamps over the response levers were turned on, the lever on the left-hand side of the chamber extended, and a food pellet was delivered following an average of 17 responses on the lever in the chamber (range 3 to 40 responses)—a variable-ratio 17 schedule (VR17).
In the punished component (which followed the unpunished component), the right-hand lever was extended into the chamber; the stimulus lamps and houselights were turned on and off at 1 second intervals, in succession, which served as a cue for this component; and food was available under a VR17 schedule, but was accompanied by an electrical current (0.5 second duration) that was delivered to the grid floor of the chamber under an independent VR17 schedule. The level of the current was adjusted for each individual subject until responding was reduced in the punished component to a level that was about 5% to 10% that of the unpunished component, and ranged from 0.2 mA to 0.75 mA. Unpunished and punished components were separated by 10 second time-out periods in which both response levers were retracted and all stimulus lamps turned off. 2 minute unpunished and 3 minute punished components alternated until 5 of each were completed. Daily sessions always began with the unpunished responding component. […] Several doses were tested on a given test day in different subjects. Each dose, then, was tested in different sub-set of rats.
Data Analysis. The dependent variables recorded were the rate of responding in unpunished and punished components (total responses/total time under the component) and the number of shocks delivered.

[4] = Ultraviolet light, 25° C./60% RH, 2x ICH (2 days), stored open
[5] = Ultraviolet light, 25° C./60% RH, 3x ICH (3 days), stored open
[6] = Ultraviolet light, 25° C./60% RH, ICH (1 day), stored open
[7] = White light, 25° C./60%, ICH (7 days), stored open

SMILES: CCN(CC)C(=O)c1ccc([C@H](c2cccc(N)c2)N2CCN(Cc3ccc(F)cc3)CC2)cc1 [Amorphous Tri-HCl Salt of Compound A1, 4-{(R)-(3-aminophenyl)[4-(4-fluorobenzyl)piperazin-1-yl]methyl}-N,N-diethylbenzamide]
- % Purity after 60° C./80% RH, 2 wks [1]: 93.5%
- % Purity after 60° C./80% RH, 4 wks [1]: 89.7%
- % Purity after 80° C., 2 wks ([1]; 80° C.): 93.1%
- % Purity after 80° C., 4 wks ([1]; 80° C.): 91.1%
- Initial Purity [1]: 97.7%

SMILES: CCN(CC)C(=O)c1ccc([C@H](c2cccc(N)c2)N2CCN(Cc3ccc(F)cc3)CC2)cc1 [Form I of the mono-HCl salt of Compound A1] [4-{(R)-(3-aminophenyl)[4-(4-fluorobenzyl)piperazin-1-yl]methyl}-N,N-diethylbenzamide]
- % Purity (after challenge) ([1]; 25° C./60% RH, 7 days): 99.8%
- % Purity (reference material) ([1]; 25° C./60% RH, 7 days): 103.2%
- % Purity after 40° C./75% RH, 2 wks ([1]; 40° C./75% RH): 97.3% and 98.8%
- % Purity after 40° C./75% RH, 4 wks ([1]; 40° C./75% RH): 97.2% and 98.8%
- % Purity (after challenge) ([1]; 40° C./75% RH, 7 days): 99.8%
- % Purity (reference material) ([1]; 40° C./75% RH, 7 days): 102.1%
- % Purity after 60° C./80% RH, 2 wks [1]: 90.4% and 97.6%
- % Purity after 60° C./80% RH, 4 wks [1]: 89.0% and 95.3%
- % Purity after 80° C., 2 wks ([1]; 80° C.): 94.1% and 96.9%
- % Purity after 80° C., 4 wks ([1]; 80° C.): 92.3% and 95.4%
- % Purity (after challenge) ([1]; 80° C., 7 days): 99.8%
- % Purity (reference material) ([1]; 80° C., 7 days): 101.4%
- % Purity (after challenge) ([1]; Reference, 0 days): 99.8%
- % Purity (reference material) ([1]; Reference, 0 days): 100%
- % Purity (after challenge) [1, 4]: 99.2%
- % Purity (reference material) [1, 4]: 95.0%
- % Purity (after challenge) [1, 5]: 99.0%
- % Purity (reference material) [1, 5]: 94.7%
- % Purity (after challenge) [1, 6]: 99.6%
- % Purity (reference material) [1, 6]: 98.0%
- % Purity (after challenge) [1, 7]: 98.5%
- % Purity (reference material) [1, 7]: 95.6%
- Initial Purity [1]: 97.0% and 98.7%
- IDR (intrinsic dissolution rate) ([2]; FaSSIF, initial pH 6.51, mean ± SD, n = 2): 48.4 μg/min/cm^2
- IDR (intrinsic dissolution rate) ([2]; FaSSIF, initial pH 6.51, mean ± SD, n = 2, listed as Form I of the Compound A1 Mono-HCl Salt): 48.4 ± 7.12 μg/min/cm^2
- IDR (intrinsic dissolution rate) ([2]; FeSSIF, initial pH 5.03, mean ± SD, n = 2): 91.6 μg/min/cm^2
- IDR (intrinsic dissolution rate) ([2]; FeSSIF, initial pH 5.03, mean ± SD, n = 2, listed as Form I of the Compound A1 Mono-HCl Salt): 91.6 ± 5.48 μg/min/cm^2
- IDR (intrinsic dissolution rate) ([2]; SGF, initial pH 1.3): too soluble to permit determination of its IDR
- Solubility, 3 hr ([3]; 3 hr): 1720 µg/mL
- Solubility, 24 hr ([3]; 24 hr): 830 µg/mL

SMILES: CCN(CC)C(=O)c1ccc([C@H](c2cccc(N)c2)N2CCN(Cc3ccc(F)cc3)CC2)cc1 [Phosphate Salt of Compound A1, 4-{(R)-(3-aminophenyl)[4-(4-fluorobenzyl)piperazin-1-yl]methyl}-N,N-diethylbenzamide]
- % Purity after 40° C./75% RH, 2 wks ([1]; 40° C./75% RH): 88.6%
- % Purity after 40° C./75% RH, 4 wks ([1]; 40° C./75% RH): 87.7%
- % Purity after 60° C./80% RH, 2 wks [1]: 81.4%
- % Purity after 60° C./80% RH, 4 wks [1]: 78.4%
- % Purity after 80° C., 2 wks ([1]; 80° C.): 86.6%
- % Purity after 80° C., 4 wks ([1]; 80° C.): 83.4%
- Initial Purity [1]: 91.2%

SMILES: CCN(CC)C(=O)c1ccc([C@H](c2cccc(N)c2)N2CCN(Cc3ccc(F)cc3)CC2)cc1 [Sulfate Salt of Compound A1, 4-{(R)-(3-aminophenyl)[4-(4-fluorobenzyl)piperazin-1-yl]methyl}-N,N-diethylbenzamide]
- % Purity after 40° C./75% RH, 2 wks ([1]; 40° C./75% RH): 92.6% and 88.7%
- % Purity after 40° C./75% RH, 4 wks ([1]; 40° C./75% RH): 91.2% and 87.3%
- % Purity after 60° C./80% RH, 2 wks [1]: 74.1% and 80.5%
- % Purity after 60° C./80% RH, 4 wks [1]: 62.3% and 80.6%
- % Purity after 80° C., 2 wks ([1]; 80° C.): 78.5% and 88.7%
- % Purity after 80° C., 4 wks ([1]; 80° C.): 67.1% and 85.7%
- Initial Purity [1]: 93.3% and 94.7%

SMILES: CN1C(=O)CN=C(c2ccccc2)c2cc(Cl)ccc21 [diazepam, reference compound]
- level of efficacy in modified Geller-Seifter conflict model (rat): about 250%
